We go through 59 compounds from patent US20240228482A1, “COMPOUNDS, COMPOSITIONS AND METHODS OF TREATING CANCER” (HOTSPOT THERAPEUTICS, INC., priority 2021, published 2024).

Bounds are passed on as bounds.

T1 sequence (Q13191 whole entry): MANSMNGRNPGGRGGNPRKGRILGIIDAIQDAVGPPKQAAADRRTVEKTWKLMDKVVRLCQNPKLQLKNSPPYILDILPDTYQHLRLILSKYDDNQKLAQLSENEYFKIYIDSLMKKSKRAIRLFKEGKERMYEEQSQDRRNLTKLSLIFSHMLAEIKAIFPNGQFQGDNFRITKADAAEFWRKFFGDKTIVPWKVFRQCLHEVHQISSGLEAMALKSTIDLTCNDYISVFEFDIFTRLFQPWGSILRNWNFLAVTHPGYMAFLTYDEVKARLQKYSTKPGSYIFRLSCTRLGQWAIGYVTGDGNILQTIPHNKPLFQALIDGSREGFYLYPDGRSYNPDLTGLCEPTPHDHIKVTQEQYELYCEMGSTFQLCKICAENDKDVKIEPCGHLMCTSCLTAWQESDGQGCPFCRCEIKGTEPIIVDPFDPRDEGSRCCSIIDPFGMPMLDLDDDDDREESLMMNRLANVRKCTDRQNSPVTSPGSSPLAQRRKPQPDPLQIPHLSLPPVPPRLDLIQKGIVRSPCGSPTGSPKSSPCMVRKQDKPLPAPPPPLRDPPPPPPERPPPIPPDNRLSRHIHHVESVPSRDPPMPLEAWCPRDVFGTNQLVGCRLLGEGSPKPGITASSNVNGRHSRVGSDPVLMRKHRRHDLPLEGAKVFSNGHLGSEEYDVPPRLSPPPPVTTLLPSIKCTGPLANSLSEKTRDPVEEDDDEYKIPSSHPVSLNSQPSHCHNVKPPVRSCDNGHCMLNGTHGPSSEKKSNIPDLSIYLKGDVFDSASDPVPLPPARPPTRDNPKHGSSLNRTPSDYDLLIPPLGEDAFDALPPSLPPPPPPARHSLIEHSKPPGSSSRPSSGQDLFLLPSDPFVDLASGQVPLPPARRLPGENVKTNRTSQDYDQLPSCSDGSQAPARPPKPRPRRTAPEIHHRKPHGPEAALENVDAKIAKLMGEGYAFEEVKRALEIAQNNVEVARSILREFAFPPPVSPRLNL

One experiment has as its target T1, CBL-B (Homo sapiens, UniProt Q13191).
T1 construct: GST
The experiment in a line: CBL-B TR-FRET IC50 screening (E1/E2 ubiquitination, Biotin-Ubiquitin, Anti GST-Tb donor / Streptavidin-d2 acceptor). As to conditions: CBL-B 10 nM final; 11-point titration from 100 uM; binned A-F; read-out: CBL-B TR-FRET activity IC50. The class given is biochemical. (TR-FRET usually uses a lanthanide donor and a delayed reading to cut background.)
`CC(Cc1nncn1C)c1cccc(-n2cc3c(C(F)(F)F)cccn3c2=O)c1` (centres unmarked) [Compound 1]: the IC50 was 301 to 1000 nM. The same measure, in the same setting: with `C[C@H](Cc1nncn1C)c1cccc(-n2cc3c(C(F)(F)F)cccn3c2=O)c1` [Compound 2] the figure was 301 to 1000 nM; with `C[C@@H](Cc1nncn1C)c1cccc(-n2cc3c(C(F)(F)F)cccn3c2=O)c1` [Compound 3], 3000 to 10000 nM.

On to `Cn1cnnc1CC1CCc2c1cccc2-n1cc2c(C(F)(F)F)cccn2c1=O` (centres unmarked) [Compound 4], for which the IC50 is over 10000 nM.

Take `C[C@@H](Sc1nncn1C)c1cccc(-n2cc3c(C(F)(F)F)cccn3c2=O)c1` [Compound 5]: the IC50 was over 10000 nM. Same read-out and setting: for `C[C@H](Sc1nncn1C)c1cccc(-n2cc3c(C(F)(F)F)cccn3c2=O)c1` [Compound 6] the value was over 10000 nM.

In the case of `Cn1cnnc1CC1(c2cccc(-n3cc4c(C(F)(F)F)cc(Br)cn4c3=O)c2)COC1` [Compound 7], the IC50 is 100 to 300 nM. The same measure, in the same setting: for `C=Cc1cc(C(F)(F)F)c2cn(-c3cccc(C4(Cc5nncn5C)COC4)c3)c(=O)n2c1` [Compound 8] the value was 100 to 300 nM; for `Cn1cnnc1CC1(c2cccc(-n3cc4c(C(F)(F)F)cccn4c3=O)c2)COC1` [Compound 9], 100 to 300 nM; for `Cn1cnnc1CC1(c2cccc(-n3cc4c(C(F)(F)F)cc(CN5CCC6(CC6)C5)cn4c3=O)c2)COC1` [Compound 10], under 100 nM. The same measure, in the same setting: with `Cn1cnnc1CC1(c2cccc(-n3cc4c(C(F)(F)F)cc(CN5CCC(C)(F)CC5)cn4c3=O)c2)COC1` [Compound 11] the figure was under 100 nM.

As for `C[C@@H]1CN(Cc2cc(C(F)(F)F)c3cn(-c4cccc(C5(Cc6nncn6C)COC5)c4)c(=O)n3c2)CCO1` [Compound 12], the IC50 is under 100 nM. On the same count and under the same terms, with `Cn1cnnc1CC1(c2cccc(-n3cc4c(C(F)(F)F)cc(CN5CCC(F)CC5)cn4c3=O)c2)COC1` [Compound 13] the figure was under 100 nM.

Take `Cn1cnnc1CC1(c2cccc(-n3cc4c(C(F)(F)F)cc(CN5CC[C@H](F)C5)cn4c3=O)c2)COC1` [Compound 14]: the IC50 is under 100 nM. For `CN1CC2CCC(C1)N2c1cc(C(F)(F)F)c2cn(-c3cccc(C4(Cc5nncn5C)COC4)c3)c(=O)n2c1` [Compound 15], the IC50 lay within 100 to 300 nM.

On to `Cn1cnnc1C[C@@H]1CCc2c1cccc2-n1cc2c(C(F)(F)F)cccn2c1=O` [Compound 17], for which the IC50 is over 10000 nM.

In the case of `Cn1cnnc1CC1(c2cccc(-n3cc4c(C(F)(F)F)cc(C#N)cn4c3=O)c2)COC1` [Compound 18], the IC50 was 100 to 300 nM. On the same count and under the same terms, with `CC(=O)c1cc(C(F)(F)F)c2cn(-c3cccc(C4(Cc5nncn5C)COC4)c3)c(=O)n2c1` [Compound 19] the figure was 1000 to 3000 nM; with `Cn1cnnc1CC1(c2cccc(-n3cc4c(C(F)(F)F)cc(C(=O)O)cn4c3=O)c2)COC1` [Compound 20], 3000 to 10000 nM; with `Cn1cnnc1CC1(c2cccc(-n3cc4c(C(F)(F)F)cc(CN5CC6(CC6)C5)cn4c3=O)c2)COC1` [Compound 21], under 100 nM. Same read-out and setting: with `Cn1cnnc1CC1(c2cccc(-n3cc4c(C(F)(F)F)cc(CN5CCC[C@H](F)C5)cn4c3=O)c2)COC1` [Compound 22] the figure was under 100 nM; with `Cn1cnnc1CC1(c2cccc(-n3cc4c(C(F)(F)F)cc(CN5CC(F)C5)cn4c3=O)c2)COC1` [Compound 23], under 100 nM; with `Cn1cnnc1CC1(c2cccc(-n3cc4c(C(F)(F)F)cc(CN5CC[C@@H](C#N)C5)cn4c3=O)c2)COC1` [Compound 24], under 100 nM.

As for `Cn1cnnc1CC1(c2cccc(-n3cc4c(C(F)(F)F)cc(CN5CC6CC6C5)cn4c3=O)c2)COC1` (centres unmarked) [Compound 25], the IC50 is under 100 nM. Still for that read-out and setting: for `Cn1cnnc1C(F)(F)[C@](C)(F)c1cccc(-n2cc3c(C(F)(F)F)cc(CN4CC[C@H](F)C4)cn3c2=O)c1` [Compound 26] the value was 100 to 300 nM. The same measure, in the same setting: with `Cc1c2c(C(F)(F)F)cccn2c(=O)n1-c1cccc(C(C)Cc2nncn2C)c1` (centres unmarked) [Compound 27] the figure was over 10000 nM.

Regarding `Cn1cnnc1C(F)(F)[C@@](C)(F)c1cccc(-n2cc3c(C(F)(F)F)cc(CN4CC[C@H](F)C4)cn3c2=O)c1` [Compound 28], the IC50 lay within 100 to 300 nM. The same measure, in the same setting: for `C[C@H]1CCCN(Cc2cc(C(F)(F)F)c3cn(-c4cccc(C5(Cc6nncn6C)COC5)c4)c(=O)n3c2)C1` [Compound 29] the value was under 100 nM; for `CNC(=O)c1cc(C(F)(F)F)c2cn(-c3cccc(C4(Cc5nncn5C)COC4)c3)c(=O)n2c1` [Compound 30], 1000 to 3000 nM; for `CN(C)C(=O)c1cc(C(F)(F)F)c2cn(-c3cccc(C4(Cc5nncn5C)COC4)c3)c(=O)n2c1` [Compound 31], 301 to 1000 nM. Same read-out and setting: with `C[C@@H](c1cc(C(F)(F)F)c2cn(-c3cccc(C4(Cc5nncn5C)COC4)c3)c(=O)n2c1)N1CCC(F)CC1` [Compound 33] the figure was under 100 nM; with `C[C@H](c1cc(C(F)(F)F)c2cn(-c3cccc(C4(Cc5nncn5C)COC4)c3)c(=O)n2c1)N1CCC(F)CC1` [Compound 34], under 100 nM; with `Cn1cnnc1C(F)(F)[C@](C)(F)c1cccc(-n2cc3c(C(F)(F)F)cc(CN4CCC(F)(F)C4)cn3c2=O)c1` [Compound 35], 3000 to 10000 nM.

Consider `Cn1cnnc1C(F)(F)[C@@](C)(F)c1cccc(-n2cc3c(C(F)(F)F)cc(CN4CCC(F)(F)C4)cn3c2=O)c1` [Compound 36], for which the IC50 was in the range of 301 to 1000 nM. As for `C[C@H](c1cc(C(F)(F)F)c2cn(-c3cccc(C4(Cc5nncn5C)COC4)c3)c(=O)n2c1)N1CC2CC2C1` (some centres unmarked) [Compound 37], the IC50 is under 100 nM. On the same count and under the same terms, with `CN(CCO)C(=O)c1cc(C(F)(F)F)c2cn(-c3cccc(C4(Cc5nncn5C)COC4)c3)c(=O)n2c1` [Compound 38] the figure was 301 to 1000 nM. Same read-out and setting: with `C[C@@H](c1cc(C(F)(F)F)c2cn(-c3cccc(C4(Cc5nncn5C)COC4)c3)c(=O)n2c1)N1CC[C@H](F)C1` [Compound 39] the figure was under 100 nM; with `C[C@H](c1cc(C(F)(F)F)c2cn(-c3cccc(C4(Cc5nncn5C)COC4)c3)c(=O)n2c1)N1CC[C@H](F)C1` [Compound 40], under 100 nM; with `C[C@@H](c1cc(C(F)(F)F)c2cn(-c3cccc(C4(Cc5nncn5C)COC4)c3)c(=O)n2c1)N1CCC(C)(F)CC1` [Compound 41], under 100 nM. On the same count and under the same terms, for `C[C@H](c1cc(C(F)(F)F)c2cn(-c3cccc(C4(Cc5nncn5C)COC4)c3)c(=O)n2c1)N1CCC(C)(F)CC1` [Compound 42] the value was under 100 nM. Turning to `Cn1cnnc1[C@@H]1C[C@@H]1c1cccc(-n2cc3c(C(F)(F)F)cccn3c2=O)c1` [Compound 43], the IC50 was in the range of 3000 to 10000 nM. The same measure, in the same setting: for `Cn1cnnc1[C@@H](F)C1(c2cccc(-n3cc4c(C(F)(F)F)cc(CN5CCC(F)CC5)cn4c3=O)c2)COC1` [Compound 44] the value was under 100 nM; for `C[C@H](Cc1nnc[nH]1)c1cccc(-n2cc3c(C(F)(F)F)cccn3c2=O)c1` [Compound 46], 1000 to 3000 nM; for `C[C@@H](Cc1nnc[nH]1)c1cccc(-n2cc3c(C(F)(F)F)cccn3c2=O)c1` [Compound 47], over 10000 nM.

Consider `C[C@H]1CCCN(Cc2cc(C(F)(F)F)c3cn(-c4cccc(C5(Cc6nncn6C(F)F)COC5)c4)c(=O)n3c2)C1` [Compound 48], for which the IC50 was under 100 nM.

As for `COC1CCN(Cc2cc(C(F)(F)F)c3cn(-c4cccc(C5(Cc6nncn6C)COC5)c4)c(=O)n3c2)CC1` [Compound 49], the IC50 was under 100 nM. Same read-out and setting: for `COCCNCc1cc(C(F)(F)F)c2cn(-c3cccc(C4(Cc5nncn5C)COC4)c3)c(=O)n2c1` [Compound 50] the value was under 100 nM; for `COCCN(C)Cc1cc(C(F)(F)F)c2cn(-c3cccc(C4(Cc5nncn5C)COC4)c3)c(=O)n2c1` [Compound 51], 301 to 1000 nM; for `CC(Cc1nncn1C)c1ccc(F)c(-n2cc3c(C(F)(F)F)cccn3c2=O)c1` (centres unmarked) [Compound 52], 3000 to 10000 nM. Same read-out and setting: with `Cn1cnnc1CC1(c2cccc(-n3cc4c(C(F)(F)F)cc(CN5CCC(O)CC5)cn4c3=O)c2)COC1` [Compound 53] the figure was under 100 nM.

Still in this experiment, the particulars now being: second part of Table 2 (head 'Patent Cmpd No / Updated Activity'); same CBL-B TR-FRET IC50 bins A-F; read-out: Updated Activity.
Take `C[C@@H](c1cc(C(F)(F)F)c2cn(-c3cccc([C@H](c4nncn4C)C4CCC4)c3)c(=O)n2c1)N1CCC[C@@H](C(F)(F)F)C1` (single isomer, unassigned) [Compound 614]: the IC50 is under 100 nM. Still for that read-out and setting: with `CO[C@H]1C[C@@](c2cccc(-n3cc4c(C(F)(F)F)cc([C@@H](C)N5CC[C@H](F)C5)cn4c3=O)c2)(c2nncn2C)C1` (single isomer, unassigned) [Compound 615] the figure was 301 to 1000 nM; with `CO[C@H]1C[C@@](c2cccc(-n3cc4c(C(F)(F)F)cc([C@H](C)N5CC[C@H](F)C5)cn4c3=O)c2)(c2nncn2C)C1` (single isomer, unassigned) [Compound 616], under 100 nM. `CO[C@H]1C[C@](c2cccc(-n3cc4c(C(F)(F)F)cc([C@@H](C)N5CC[C@@H](F)C5)cn4c3=O)c2)(c2nncn2C)C1` (single isomer, unassigned) [Compound 617]: the IC50 lay within 100 to 300 nM. Still for that read-out and setting: for `CO[C@H]1C[C@](c2cccc(-n3cc4c(C(F)(F)F)cc([C@H](C)N5CC[C@@H](F)C5)cn4c3=O)c2)(c2nncn2C)C1` (single isomer, unassigned) [Compound 618] the value was 100 to 300 nM; for `Cn1cnnc1[C@H](c1cc(F)cc(-n2cc3c(C(F)(F)F)cc(CN4CC(F)(F)C4)cn3c2=O)c1)C1CCC1` (single isomer, unassigned) [Compound 619], over 10000 nM. The same measure, in the same setting: with `Cn1cnnc1[C@@H](c1cc(F)cc(-n2cc3c(C(F)(F)F)cc(CN4CC(F)(F)C4)cn3c2=O)c1)C1CCC1` (single isomer, unassigned) [Compound 620] the figure was 100 to 300 nM; with `CN1CC[C@]2(CCN(Cc3cc(C(F)(F)F)c4cn(-c5cccc([C@H](c6nncn6C)C6CCC6)c5)c(=O)n4c3)C2)C1=O` (single isomer, unassigned) [Compound 621], under 100 nM.

As for `CN1CC[C@@]2(CCN(Cc3cc(C(F)(F)F)c4cn(-c5cccc([C@H](c6nncn6C)C6CCC6)c5)c(=O)n4c3)C2)C1=O` (single isomer, unassigned) [Compound 623], the IC50 was under 100 nM.
